Measured values from patent US20240115681A1 (priority 2022, published 2024).
In the oligonucleotide strings, read from the 5' end, every base follows the letter of its sugar. An asterisk marks phosphorothioate; unmarked linkages are phosphodiester. Other units and linkages are bracketed, terminal groups are in braces. A string of capitals states the bases alone. d = 2'-deoxy (DNA)

How the values were obtained:
[1] = test system: mouse embryonic fibroblasts (MEFs); experiment: Cytokine expression in MEFs by RT-qPCR; type: cell-based; details: CpG-2722 5 μg/ml, c-di-AM(PS)2 1 μg/ml, 4 h (FIG. 10)
Mouse BMDCs [2] = experiment: Surface marker expression on BMDCs by flow cytometry; type: cell-based; details: CpG-2722 5 μg/ml, c-di-AM(PS)2 1 μg/ml, 24 h, CD11c+ cells (FIG. 6)
recombinant S protein = test system: recombinant S protein; set-up: species or system SARS-CoV-2; details: in vivo
Mouse splenocytes = experiment: Cytokine expression in splenocytes by RT-qPCR; type: cell-based; details: 4 h (FIG. 8)
splenocytes = experiment: Antigen-dependent T helper responses: cytokine ELISA of RBD-stimulated splenocytes from immunized mice; type: in vivo, mouse; details: splenocytes of intramuscularly immunized mice stimulated with RBD for 96 h (FIG. 5A-5C)
Mouse BMDCs [3] = experiment: Cytokine expression in BMDCs by RT-qPCR; type: cell-based; details: 4 h (FIG. 7); for expression of cytokine genes (TNF-α, IL-1β, IL-6, IL-12A, IL-12B, IL-23A, IFN-β, IFN-γ): CpG-2722 5 μg/ml, c-di-AM(PS)2 1 μg/ml
[4] = test system: NHRI-HN1 syngeneic orthotopic cancer animal model; set-up: species or system mice; details: mouse, in vivo
[5] = test system: influenza VLP (viral like particle); experiment: Antibody titers after intranasal influenza VLP/adjuvant vaccines in BALB/c mice; details: intranasal days 0, 15, 29, after the 3rd vaccination (day 42) (FIG. 15B)
Mouse PBMCs = experiment: Cytokine expression in PBMCs by RT-qPCR; type: cell-based; details: CpG-2722 5 μg/ml, c-di-AM(PS)2 1 μg/ml, 4 h (FIG. 9)

Compound	cytokine gene expression (TNF-α, IL-1β, IL-6, IL-12B, IL-23A, IFN-β) [1]	surface expression of CCR7 (Mouse BMDCs [2])	surface expression of CD80 (Mouse BMDCs [2])	surface expression of CD86 (Mouse BMDCs [2])	anti-S protein IgG titer (recombinant S protein)	serum anti-S IgA production (recombinant S protein)	expression of IFN-β, IL-4, IL-5, and IL-13 (Mouse splenocytes)	expression of IL-12A and IL-12B (Mouse splenocytes)	antigen-dependent Th responses (IFN-γ for Th1, IL-17A for Th17, IL-4, IL-5, IL-13 for Th2) (splenocytes)	expression of IFN-α (Mouse BMDCs [3])	expression of IL-2 (Mouse BMDCs [3])	expression of cytokine genes (TNF-α, IL-1β, IL-6, IL-12A, IL-12B, IL-23A, IFN-β, IFN-γ) (Mouse BMDCs [3])	tumor growth suppression [4]	surface expression of CD40 (Mouse BMDCs [2])	anti-VLP IgG titer [5]	mRNA expression of TNF-α, IL-1β, IL-6, IL-12A, IL-12B, IL-23A, IFN-β, IFN-γ (Mouse PBMCs)	expression of TNF-α, IL-1β, IL-6, IL-12A, IL-12B, IL-23A, IFN-β, IFN-γ (Mouse splenocytes; CpG-2722 5 μg/ml, c-di-AM(PS)2 1 μg/ml)	expression of IL-1β (Mouse BMDCs [3])
Nc1ncnc2c1ncn2[C@@H]1O[C@@H]2COP(O)(=S)O[C@@H]3C(O)[C@@H](COP(O)(=S)O[C@H]2[C@H]1O)O[C@H]3n1cnc2c(N)ncnc21 (some centres unmarked) [2′3′-c-di-AM(PS)2]	induced the gene expression of TNF-α, IL-1β, IL-6, IL-12B, IL-23A, and IFN-β	none of these two agonists activated expression of the CCR7	induced the expression of CD80 and CD86	induced the expression of CD80 and CD86	became apparent	did not elicit the production of serum anti-S IgA	induced the expression of IFN-β, IL-4, IL-5, and IL-13 more potently	not induced	induced an antigen-dependent Th2 response	induced the expression of IFN-α	not induced by either of these two agonists alone	induced the expressions of TNF-α, IL-1β, IL-6, IL-12A, IL-12B, IL-23A, IFN-β, and IFN-γ genes	–	–	–	–	–	–
Nc1ncnc2c1ncn2[C@@H]1O[C@@H]2COP(=O)(O)O[C@@H]3[C@H](O)[C@@H](COP(=O)(O)O[C@H]2[C@H]1O)O[C@H]3n1cnc2c(N)ncnc21 [2′3′-c-di-AMP]	–	–	–	–	–	–	–	–	–	–	–	–	some level of tumor growth suppression	–	–	–	–	–
CpG-2722 (DNA dG*dT*dT*dG*dT*dC*dG*dT*dT*dT*dT*dT*dT*dG*dT*dC*dG*dT*dT)	not observed	none of these two agonists activated expression of the CCR7	–	–	became apparent	did not elicit the production of serum anti-S IgA	–	–	preferentially induced antigen-dependent Th1 and Th17 responses	–	not induced by either of these two agonists alone	induced the expressions of TNF-α, IL-1β, IL-6, IL-12A, IL-12B, IL-23A, IFN-β, and IFN-γ genes	some level of tumor growth suppression	induced expression of CD40	does not further increase the IgG titer	higher induction by CpG-2722 treatment alone than that induced by the c-di-AM(PS)2 treatment alone	more potent than c-di-AM(PS)2	strongly induced
